This is an account of results in patent US5008245A (University of Kentucky Research Foundation, priority 1988, dated 1991).

Read-outs that look alike come from different tables or passages of the source.

Type in all cases: biochemical
For experiment [1], the target named is PPE (porcine pancreatic elastase) (Sus scrofa, UniProt P00772). As to the kind of experiment: Inhibition of PPE by peptidyl carbamates. The note with it: Ex. 67 table, N.I. = no inhibition at I/E = 100. Here is the method: (§1) These studies are conducted to show the activities of some of the compounds of this invention as inhibitors of various forms of the enzyme elastase.
^c N.I. refers to no inhibition at I/E = 100.

For experiment [2], the target named is T1, HLE (human leukocyte elastase) (Homo sapiens, UniProt P08246).
T1 sequence (P08246 30-267): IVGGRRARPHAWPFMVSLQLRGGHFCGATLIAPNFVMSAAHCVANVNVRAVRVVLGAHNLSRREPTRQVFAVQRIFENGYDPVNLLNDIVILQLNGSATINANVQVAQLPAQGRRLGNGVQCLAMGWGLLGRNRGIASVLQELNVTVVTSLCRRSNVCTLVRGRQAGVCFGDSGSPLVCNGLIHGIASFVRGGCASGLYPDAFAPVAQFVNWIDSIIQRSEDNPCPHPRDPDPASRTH
The experiment can be described thus: Inhibition of HLE by desmosine-like peptidyl carbamates, steady state kinetics (Dixon plot, Lineweaver-Burk slope replot). Here is the method: ^c Lines contained linear regression analysis correlations of >0.950.
^d Ki values determined from LineweaverBurk slope replots. Slope
were obtained from lines with linear regression analysis correlations of
^a Ki value was determined by steady state kinetics.
as §1

The target in the next experiment is enzyme elastase. As to the kind of experiment: Inhibition of the enzyme elastase, Ki / inhibitor dissociation constants. The note with it: p-nitrophenyl at P1 replaced by N-phenylthiotetrazole.
The mark [3] stands for this setting: Table 1, variations in P4, Dixon plot, linear regression correlations >0.950, read-out: Ki value (μM) Dixon.
Setting [4] is: Table 1, variations in P4, Lineweaver-Burk slope replots, correlations >0.990, read-out: Ki value (μM) Replot.
[5] abbreviates: Ki values (μM) Dixon, Table 2, variations in P3, Dixon plot, linear regression correlations >0.950.
Setting [6] is: Ki values (μM) Replot, Table 2, variations in P3, Lineweaver-Burk slope replots, correlations >0.990.
Where [7] appears, read: Table 2, variations in P3, Dixon plot, linear regression correlations >0.950, read-out: Ki values (μM) Dixon.
Setting [8] is: Table 2, variations in P3, Lineweaver-Burk slope replots, correlations >0.990, read-out: Ki values (μM) Replot.

Sequence of PPE (porcine pancreatic elastase) (P00772 27-266): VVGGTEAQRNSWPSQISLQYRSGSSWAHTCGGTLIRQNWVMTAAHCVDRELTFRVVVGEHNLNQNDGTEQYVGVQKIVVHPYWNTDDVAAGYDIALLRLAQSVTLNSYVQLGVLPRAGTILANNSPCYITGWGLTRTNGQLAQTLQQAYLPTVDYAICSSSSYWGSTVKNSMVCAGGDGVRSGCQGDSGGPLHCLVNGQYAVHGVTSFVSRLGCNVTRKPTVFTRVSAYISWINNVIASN

In the case of “p-Nitrophenyl N-[Methoxysuccinyl-(Nδ -benzoyl)ornithylalanylprolylmethyl]-N-isopropylcarbamate [Compound 47b]”, the “Ki (μM) PPE” value in experiment [1] (variations at P4) was “N.I”. Also, the Ki in experiment [2] (setting [3]) is 10 µM; in experiment [2] (setting [4]) it was 17.7 µM.

As for `COC(=O)CCC(=O)N[C@@H](C)C(=O)N[C@@H](CCCNC(=O)c1ccccc1)C(=O)N1CCC[C@@H]1C(=O)CN(C(=O)Oc1ccc([N+](=O)[O-])cc1)C(C)C` [Compound 51b], the “Ki (μM) PPE” value in experiment [1] (variations at P3) is reported as “N.I”. The Ki in experiment [2] (setting [5]) worked out at 104 µM; in experiment [2] (setting [6]), 100 µM.

In the case of `COC(=O)CCC(=O)NC(C)C(=O)NC(CCCNC(=O)c1ccccc1)C(=O)N1CCCC1C(=O)CN(C(=O)Oc1ccc([N+](=O)[O-])cc1)C(C)C` (stereo not shown) [Compound 51a], the results for the Ki in experiment [1] (variations at P3), in experiment [2] (setting [7]) and in experiment [2] (setting [8]) were 14.3 µM, 5.33 µM and 2.14 µM, respectively.

With `COC(=O)CCC(=O)N[C@@H](C)C(=O)N[C@@H](CCCCNC(=O)OCc1ccccc1)C(=O)N1CCC[C@@H]1C(=O)CN(C(=O)Oc1ccc([N+](=O)[O-])cc1)C(C)C` [Compound 48b], in experiment [1] (variations at P3), the “Ki (μM) PPE” value was “N.I”. In addition, the Ki amounted to 11.3 µM in experiment [2] (Ki (μM) HLE, Ex. 67 table, variations at P3); 20.4 µM in experiment [2] (setting [5]); 11.3 µM in experiment [2] (setting [6]).

As for `COC(=O)CCC(=O)NC(C)C(=O)NC(CCCCNC(=O)OCc1ccccc1)C(=O)N1CCCC1C(=O)CN(C(=O)Sc1nnnn1-c1ccccc1)C(C)C` (stereo not drawn) [PC5, S-(1-Phenyl-5-tetrazoyl)-N-[methoxysuccinyl-alanyl-(N6-carbonbenzoxyl)lysylprolylmethyl]-N-isopropyl thiocarbamate], the Ki on enzyme elastase was 20 nM.

On to `COC(=O)CCC(=O)NC(CCCCNC(=O)OCc1ccccc1)C(=O)NC(C)C(=O)N1CCCC1C(=O)CN(C(=O)Oc1ccc([N+](=O)[O-])cc1)C(C)C` (single isomer, unassigned) [Compound 44b, p-Nitrophenyl N-[Methoxysuccinyl-(Nε -carbobenzoxy)lysylalanylprolylmethyl]-N-isopropylcarbamate], for which the “Ki (μM) PPE” value in experiment [1] (variations at P4) is recorded as “N.I”. Besides, the figures for the Ki in experiment [2] (setting [3]) and in experiment [2] (setting [4]) were 7.3 µM and 7.63 µM, respectively.

On to `COC(=O)CCC(=O)N[C@@H](C)C(=O)N[C@@H](CCCCNC(=O)c1ccccc1)C(=O)N1CCC[C@H]1C(=O)CN(C(=O)Oc1ccc([N+](=O)[O-])cc1)C(C)C` [Compound 49b], for which, in experiment [1] (variations at P3), the “Ki (μM) PPE” value is listed as “N.I”. For the same compound, the figures for the Ki in experiment [2] (setting [7]) and in experiment [2] (setting [8]) were 34 µM and 38.5 µM, respectively.

Consider “p-Nitrophenyl N-[Methoxysuccinyl-(Nδ -benzoyl)ornithylalanylprolylmethyl]-N-isopropylcarbamate [Compound 47a]”, for which the “Ki (μM) PPE” value in experiment [1] (variations at P4) is given as “N.I”. Also, the results for the Ki in experiment [2] (setting [3]) and in experiment [2] (setting [4]) were 0.65 µM and 0.19 µM, respectively.

On to “p-Nitrophenyl N-[Methoxysuccinylalanyl-Nδ -carbobenzoxy)ornithylprolylmethyl]-N-isopropylcarbamate [Compound 50a]”, for which the Ki in experiment [1] (variations at P3) came out at 8.65 µM; in experiment [2] (setting [7]), 0.75 µM; in experiment [2] (setting [8]), 1.05 µM.

`COC(=O)CCC(=O)NC(CCCNC(=O)OCc1ccccc1)C(=O)NC(C)C(=O)N1CCCC1C(=O)CN(C(=O)Sc1nnnn1-c1ccccc1)C(C)C` (stereo not drawn) [PC6, S-(1-Phenyl-5-tetrazoyl)-N-[methoxysuccinyl-Nδ-carbobenzoxyl) ornithyl alanyl prolyl methyl]-N-isopropyl thiocarbamate]: at enzyme elastase, affinity was put at a Ki of 3 nM.

As for `COC(=O)CCC(=O)NC(C)C(=O)NC(CCCNC(=O)OCc1ccccc1)C(=O)N1CCCC1C(=O)CN(C(=O)Oc1ccc([N+](=O)[O-])cc1)C(C)C` (stereo not shown) [Compound 50b, p-Nitrophenyl N-[Methoxysuccinylalanyl-(Nδ -carbobenzoxy)ornithylprolymethyl]-N-isopropylcarbamate], the “Ki (μM) PPE” value in experiment [1] (variations at P3) was “N.I”. The inhibition constant Ki in experiment [2] (setting [7]) is 22.2 µM; in experiment [2] (setting [8]), 19.2 µM.

Regarding `COC(=O)CCC(=O)NC(CCCCNC(=O)c1ccccc1)C(=O)NC(C)C(=O)N1CCCC1C(=O)CN(C(=O)Oc1ccc([N+](=O)[O-])cc1)C(C)C` (single isomer, unassigned) [Compound 45b, p-Nitrophenyl N-[Methoxysuccinyl-(Nε -benzoyl)lysylalanylprolylmethyl]-N-isopropylcarbamate], in experiment [1] (variations at P4), the “Ki (μM) PPE” value is given as “N.I”. The Ki is 3.7 µM in experiment [2] (setting [3]) and 3.13 µM in experiment [2] (setting [4]).

As to `COC(=O)CCC(=O)NC(CCCNC(=O)OCc1ccccc1)C(=O)NC(C)C(=O)N1CCCC1C(=O)CN(C(=O)Oc1ccc([N+](=O)[O-])cc1)C(C)C` (single isomer, unassigned) [Compound 46b, p-Nitrophenyl N-[Methoxysuccinyl-(Nδ -carbobenzoxy)ornithylalanylprolylmethyl]-N-isopropylcarbamate], the “Ki (μM) PPE” value in experiment [1] (variations at P4) is given as “N.I”. Besides, the Ki in experiment [2] (setting [3]) came out at 8.8 µM; in experiment [2] (setting [4]), 7.95 µM.

For “p-Nitrophenyl N-[Methoxysuccinyl-(Nδ -carbobenzoxy)lysylprolylmethyl]-N-isopropylcarbamate [Compound 48a]”, the values for the Ki in experiment [1] (variations at P3), in experiment [2] (setting [7]) and in experiment [2] (setting [8]) were 3.4 µM, 1.1 µM and 0.22 µM, respectively.

For `COC(=O)CCC(=O)NC(CCCNC(=O)OCc1ccccc1)C(=O)NC(C)C(=O)N1CCCC1C(=O)CN(C(=O)Oc1ccc([N+](=O)[O-])cc1)C(C)C` (single isomer, unassigned) [Compound 46a, p-Nitrophenyl N-[Methoxysuccinyl-(Nδ -carbobenzoxy)ornithylalanylprolylmethyl]-N-isopropylcarbamate], the “Ki (μM) PPE” value in experiment [1] (variations at P4) is “N.I”. Besides, the Ki in experiment [2] (Ex. 67 table, variations at P4, read-out: Ki (μM) HLE) was 0.65 µM; in experiment [2] (setting [3]), 0.43 µM; in experiment [2] (setting [4]), 0.36 µM.

Take `COC(=O)CCC(=O)NC(CCCCNC(=O)c1ccccc1)C(=O)NC(C)C(=O)N1CCCC1C(=O)CN(C(=O)Oc1ccc([N+](=O)[O-])cc1)C(C)C` (single isomer, unassigned) [Compound 45a, p-Nitrophenyl N-[Methoxysuccinyl-(Nε -benzoyl)lysylalanylprolylmethyl]-N-isopropylcarbamate]: the “Ki (μM) PPE” value in experiment [1] (variations at P4) is “N.I”. For the same compound, the values for the inhibition constant Ki in experiment [2] (setting [3]) and in experiment [2] (setting [4]) were 0.73 µM and 0.38 µM, respectively.

On to `COC(=O)CCC(=O)NC(CCCCNC(=O)OCc1ccccc1)C(=O)NC(C)C(=O)N1CCCC1C(=O)CN(C(=O)Oc1ccc([N+](=O)[O-])cc1)C(C)C` (single isomer, unassigned) [Compound 44a, p-Nitrophenyl N-[Methoxysuccinyl-(Nε -carbobenzoxy)lysylalanylprolylmethyl]-N-isopropylcarbamate], for which, in experiment [1] (variations at P4), the “Ki (μM) PPE” value is “N.I”. The values for the Ki in experiment [2] (setting [3]) and in experiment [2] (setting [4]) were 0.56 µM and 0.47 µM, respectively.

Take `COC(=O)CCC(=O)N[C@@H](C)C(=O)N[C@@H](CCCCNC(=O)c1ccccc1)C(=O)N1CCC[C@H]1C(=O)CN(C(=O)Oc1ccc([N+](=O)[O-])cc1)C(C)C` [Compound 49a]: the figures for the inhibitory constant (Ki) in experiment [1] (variations at P3), in experiment [2] (setting [7]) and in experiment [2] (setting [8]) were 3.8 µM, 1.6 µM and 0.31 µM, respectively.
